Patent publication US9943507B2, “Treatment of pancreatic and related cancers with 5-acyl-6,7-dihydrothieno[3,2-c]pyridines” (Memorial Sloan-Kettering Cancer Center, priority 2012, dated 2018)

Columns and labels:
Hhat [1] = target: T1, Hhat (Homo sapiens, UniProt Q5VTY9); assay: In vitro Hhat activity assay with purified enzyme and ShhN recombinant protein (IC50); assay type: biochemical; settings: saturating substrate; purified enzyme, 0.7 μM ShhN recombinant protein, 18 μM 125I-iodo-palmitoylCoA
T1 construct: expressed in transfected cells; host or cells: 293FT cells (P100 membrane fraction)
T1 sequence (Q5VTY9 whole entry): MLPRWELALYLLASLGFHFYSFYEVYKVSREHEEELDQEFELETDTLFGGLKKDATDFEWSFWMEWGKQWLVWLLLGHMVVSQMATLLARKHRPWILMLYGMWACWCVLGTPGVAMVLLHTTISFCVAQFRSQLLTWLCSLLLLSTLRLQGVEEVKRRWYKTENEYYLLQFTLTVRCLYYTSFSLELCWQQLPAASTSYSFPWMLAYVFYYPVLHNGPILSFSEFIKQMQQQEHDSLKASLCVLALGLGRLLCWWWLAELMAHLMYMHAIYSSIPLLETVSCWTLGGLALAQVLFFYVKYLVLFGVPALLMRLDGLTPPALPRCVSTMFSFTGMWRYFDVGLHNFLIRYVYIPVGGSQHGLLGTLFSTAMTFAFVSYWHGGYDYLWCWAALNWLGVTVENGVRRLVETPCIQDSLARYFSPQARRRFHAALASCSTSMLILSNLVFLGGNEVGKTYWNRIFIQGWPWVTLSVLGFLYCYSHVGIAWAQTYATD
Experimental: Expression and purification of recombinant Shh were carried out as described in Buglino, J. A. and Resh, M. D. “Hhat is a palmitoylacyl transferase with specificity for N-palmitoylation of sonic hedgehog”. J. Biol. Chem. 283, 22076-22088 (2008) and Buglino, J. A. and Resh, M. D. “Identification of conserved regions and residues within Hedgehog acyltransferase critical for palmitoylation of Sonic Hedgehog”. PLoS One 5, e11195 (2010). N-terminally 6×His tagged human Shh 24-197 with an enterokinase cleavage site immediately upstream of residue 24 was amplified using full length Shh as a template. The purified PCR product was ligated in NcoI and BamHI cut PET19b (Novagen). C24S and C24A constructs were generated by site directed mutagenesis using the Quick Change mutagenesis kit. All mutations were confirmed by sequencing. […] Protein concentration was measured using the DC protein assay (BioRad). […]
HhatHAFlagHis was purified as follows. […] Protein concentrations were determined using the DC Protein Assay. The concentration of the final Flag eluate was determined from the absorbance at 280 nm using an extinction coefficient of 193045 cm^−1M^−1. […]

[2] = test system: AsPC1 (human pancreatic adenocarcinoma) cells; assay: Human pancreatic adenocarcinoma cell assay; assay type: cell-based; settings: day six, FIG. 3
Experimental: Human pancreatic adenocarcinoma cell assay: 5000 AsPC1 (human pancreatic adenocarcinoma) cells were plated in each well of a 384-well black/clear-bottom tissue culture plate (Greiner Bio-One, Kremsmuenster, Austria), using Thermo Multi-Drop Combi dispenser. The plates were incubated at 37° C. for 24 h before compounds were dispensed using a Janus “Varispan” automated syringe pipette at 50 μM final concentration. High control (DMSO only) and low control (cell media only) rows were included in each plate. After 48 h incubation, Alamar Blue (Invitrogen) was added to each well in 1:100 ratio. 4 h later, cell viability was assessed by measuring fluorescence on a Perkin-Elmer EnVision plate reader.
Compound 13 was tested in the human pancreatic adenocarcinoma cell assay. The results are shown graphically in FIG. 3. At 10 μM it reduced the proliferation of human pancreatic cancer cells 50% at day six. At 20 μM it reduced the proliferation of human pancreatic cancer cells by 70% at day six.

Hhat [3] = target: T1, Hhat; assay: Hhat activity assay (SPA, P100 membranes from HA-Hhat transfected 293FT cells); assay type: biochemical; settings: 12.5 μM compound, 125I-iodo-palmitoylCoA, Shh biotinylated peptide
Experimental: Hhat activity assay: Five μl of 10 mM MES, pH 6.5 buffer was dispensed within each well of a 384-well white/clear-bottom plate (Greiner Bio-One, Kremsmuenster, Austria) using a Thermo Multi-Drop Combi dispenser. […] Percent inhibition for each experimental point was determined by the formula: [(high control−compound)/(high control−low control)]*100.

SMILES | IC50 (Hhat [1]) [µM] | reduction of proliferation of human pancreatic cancer cells ([2]; 10 μM) [%] | reduction of proliferation of human pancreatic cancer cells ([2]; 20 μM) [%] | inhibition at 12.5 µM (Hhat [3]) [%]
CCC(C)CNCC(=O)N1CCc2sccc2C1c1cccc(C)c1 (centres unmarked) [Example 13] | 2.05 | 50 | 70 | 
CCC(C)CNCC(=O)N1CCc2sccc2C1c1cccc(C)n1 (centres unmarked) [Example 14] | 0.68 |  |  | 
C=CCNCC(=O)N1CCc2sccc2C1c1ccccc1 (centres unmarked) [Example 5] |  |  |  | 95.6
